“And” between values parts separate entries of the source, which are not always exact repeats. Equal entries are not always repeated.

Assay type in all cases: biochemical
One assay has as its system type IV collagenase. The assay can be described thus: Collagenase inhibition trial (EnzChek Gelatinase/Collagenase Assay Kit, DQ Gelatin fluorescence). The following applies: peptides at 2 mg/mL, preincubated 1 hour with 0.1 unit/mL type IV collagenase; DQ Gelatin 25 μg/mL, 2 hours; normalized to medium basal values. The protocol: Peptides were resuspended in water in the presence of 0.5% DMSO. The trial was carried out in black microplates having 96 well and the EnzChek®Gelatinase/Collagenase Assay Kit (Molecular Probes) was used. To that end, peptides were preincubated at 2 mg/mL during 1 hour with 0.1 unit/mL of type IV collagenase at room temperature with moderate agitation, after said time fluorescein conjugated substrate (DQ™ Gelatin) was added to a final concentration of 25 μg/mL and reactions were incubated for 2 hours at room temperature with agitation and protected from light. The substrate, whose flourescence is inhibited, is […] collagenase releasing flourescent fragments, monitored by florescence with a FLUOstar galaxy reader (BMG LabTechnologies), using 485 nm filters for excitation and 520 nm for emission.
Table 2 details those peptides whose collagenase inhibition values are higher than 25%. Inhibition values were normalized with respect to medium inhibition basal values.

The target in a further assay is T1, Human MMP-2 (Homo sapiens, UniProt P08253).
T1 sequence (P08253 110-660): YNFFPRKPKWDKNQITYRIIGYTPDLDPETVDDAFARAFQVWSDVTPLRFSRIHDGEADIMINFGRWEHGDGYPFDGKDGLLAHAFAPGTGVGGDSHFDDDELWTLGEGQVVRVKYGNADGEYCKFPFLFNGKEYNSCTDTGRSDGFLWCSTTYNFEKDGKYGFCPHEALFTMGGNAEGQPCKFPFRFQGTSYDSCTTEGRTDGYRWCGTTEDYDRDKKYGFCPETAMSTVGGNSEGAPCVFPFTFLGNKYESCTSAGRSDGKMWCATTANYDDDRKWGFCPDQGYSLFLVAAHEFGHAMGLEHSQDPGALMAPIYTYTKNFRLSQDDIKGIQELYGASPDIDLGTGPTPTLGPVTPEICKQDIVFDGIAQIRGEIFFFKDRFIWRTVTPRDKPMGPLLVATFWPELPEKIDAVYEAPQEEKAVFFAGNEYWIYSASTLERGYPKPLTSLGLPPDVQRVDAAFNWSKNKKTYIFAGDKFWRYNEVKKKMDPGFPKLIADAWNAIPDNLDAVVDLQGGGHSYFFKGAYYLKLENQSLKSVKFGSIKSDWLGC
The assay can be described thus: Human MMP inhibition, DQ Gelatin fluorescence. The following applies: peptides 0.5 mM, activated protease 0.35 μg/mL, 1 hour preincubation; DQ Gelatin 25 μg/mL, 16 hours; normalized to control fluorescence; in % (unit assumed). The protocol: (§1) Human MMPs were reconstructed in 50 mM Tris-HCl, 150 mM NaCl, 5 mM CaCl2, 0.2 mM NaN3 at a 7.6 pH and activated by reaction with 10 mM of 4-aminophenylmercuric acetate (dissolved in 0.01M NaOH) at a 10:1 to 37° C. ratio for 4-6 h. Activated proteases (0.35 μg/mL) were preincubated with peptides to a final 0.5 mM concentration in a 96-well black microplate for 1 hour at room temperature. After preincubation, 25 μg/mL substrate (DQ™ Gelatin) were added to the wells and samples were incubated for 16 hours at room temperature and protected against the light. Released flourescence by marked gelatin digestion was measured with an automated multiplate fluorescence reader, exciting at 485 nm and reading at 520 nm.
(§2) The results were corrected from basal flourescent value in MMP and product absence and normalized with respect to control fluorescence. Table 3 details the best inhibition values for peptides.

For another assay, the target named is Human MMP-9 (Homo sapiens, UniProt P14780). The assay can be described thus: Human MMP inhibition, DQ Gelatin fluorescence. The following applies: peptides 0.5 mM, activated protease 0.35 μg/mL, 1 hour preincubation; DQ Gelatin 25 μg/mL, 16 hours; normalized to control fluorescence; in % (unit assumed). The protocol: as §1, §2
Chain of Human MMP-9 (P14780 107-707 limits assumed): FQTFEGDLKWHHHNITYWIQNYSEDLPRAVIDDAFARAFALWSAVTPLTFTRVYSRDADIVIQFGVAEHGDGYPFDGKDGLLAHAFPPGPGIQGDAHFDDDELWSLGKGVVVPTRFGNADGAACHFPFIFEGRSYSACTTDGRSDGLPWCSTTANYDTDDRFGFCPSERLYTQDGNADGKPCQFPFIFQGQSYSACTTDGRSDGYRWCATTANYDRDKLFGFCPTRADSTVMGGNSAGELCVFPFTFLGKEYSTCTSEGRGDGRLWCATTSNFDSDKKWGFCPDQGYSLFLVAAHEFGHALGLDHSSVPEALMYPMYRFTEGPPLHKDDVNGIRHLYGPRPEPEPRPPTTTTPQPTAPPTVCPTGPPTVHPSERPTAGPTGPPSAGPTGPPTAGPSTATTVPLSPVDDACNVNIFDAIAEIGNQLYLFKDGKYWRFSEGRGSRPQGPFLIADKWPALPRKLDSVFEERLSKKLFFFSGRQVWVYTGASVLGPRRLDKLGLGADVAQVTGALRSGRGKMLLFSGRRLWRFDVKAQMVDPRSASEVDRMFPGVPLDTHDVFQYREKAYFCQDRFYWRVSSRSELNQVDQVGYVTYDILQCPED
The next assay deals with Human MMP-3 (Homo sapiens, UniProt P08254). Description: Human MMP inhibition, DQ Gelatin fluorescence. The following applies: peptides 0.5 mM, activated protease 0.35 μg/mL, 1 hour preincubation; DQ Gelatin 25 μg/mL, 16 hours; normalized to control fluorescence. How it is done: as §1, §2
Chain of Human MMP-3 (P08254 100-477): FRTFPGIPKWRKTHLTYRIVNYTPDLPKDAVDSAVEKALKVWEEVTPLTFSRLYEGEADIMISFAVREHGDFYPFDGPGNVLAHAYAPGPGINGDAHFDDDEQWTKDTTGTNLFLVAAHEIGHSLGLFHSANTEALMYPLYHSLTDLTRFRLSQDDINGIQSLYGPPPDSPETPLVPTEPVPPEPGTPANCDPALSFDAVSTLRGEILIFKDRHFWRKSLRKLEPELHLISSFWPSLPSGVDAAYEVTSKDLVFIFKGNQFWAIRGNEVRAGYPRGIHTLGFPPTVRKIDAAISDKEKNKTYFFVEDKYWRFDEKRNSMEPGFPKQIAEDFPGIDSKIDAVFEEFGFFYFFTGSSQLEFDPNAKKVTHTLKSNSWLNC
For the next assay, the target named is T2, Human MMP-1 (Homo sapiens, UniProt P03956).
T2 sequence (P03956 100-469): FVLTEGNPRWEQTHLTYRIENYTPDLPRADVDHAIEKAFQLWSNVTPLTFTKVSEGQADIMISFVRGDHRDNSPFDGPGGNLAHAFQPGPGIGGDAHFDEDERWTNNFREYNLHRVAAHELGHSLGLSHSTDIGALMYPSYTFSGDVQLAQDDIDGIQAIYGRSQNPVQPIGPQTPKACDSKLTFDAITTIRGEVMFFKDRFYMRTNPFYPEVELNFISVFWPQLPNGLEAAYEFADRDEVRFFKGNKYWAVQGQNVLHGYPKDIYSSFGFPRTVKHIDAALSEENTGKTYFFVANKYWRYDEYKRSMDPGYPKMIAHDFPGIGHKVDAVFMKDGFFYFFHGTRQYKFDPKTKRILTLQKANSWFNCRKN
The assay can be described thus: Human MMP inhibition, DQ Gelatin fluorescence. As to conditions: peptides 0.5 mM, activated protease 0.35 μg/mL, 1 hour preincubation; DQ Gelatin 25 μg/mL, 16 hours; normalized to control fluorescence. The protocol:
as §1, §2

Take H-L-Arg-L-Asn-L-His-L-Cit-OH: the “Collagenase activity inhibition percentage” value with type IV collagenase came to 26.8%.

Regarding Palm-L-Arg-L-His-L-His-L-Cit-NH2, in the assay with type IV collagenase, the “Collagenase activity inhibition percentage” value was 36.7%.

On to Ac-L-Arg-L-Asn-L-Arg-L-Cit-OH, for which, in the assay with type IV collagenase, the “Collagenase activity inhibition percentage” value is reported as 58.9%. For the same substance, at Human MMP-2, the MMP-2 inhibition value is 78.7 and 95.3. In addition, the MMP-9 inhibition value at Human MMP-9 is 69.5 and 89.6.

Turning to Ac-L-Arg-L-His-L-Arg-L-Cit-OH, in the assay with type IV collagenase, the “Collagenase activity inhibition percentage” value worked out at 60.5%.

Consider Ac-L-Arg-L-His-L-His-L-Cit-OH, for which the “Collagenase activity inhibition percentage” value in the assay on type IV collagenase is recorded as 60.6%. For the same substance, the MMP-2 inhibition value at Human MMP-2 came out at 101.4. Further, the MMP-9 inhibition value at Human MMP-9 is reported as 63.1. The substance further yielded an MMP-3 inhibition value at Human MMP-3 of 39.1%. At Human MMP-1, the MMP-1 inhibition value came out at 34.7%.

As for “Ac-L-Arg-L-Asn-L-His-L-Cit-CONH-(CH2)15-CH3”, in the assay with type IV collagenase, the “Collagenase activity inhibition percentage” value is 26.8%.

Consider “Ac-L-Ara-L-His-L-His-L-Cit-CONH-(CH2)15-CH3”, for which the “Collagenase activity inhibition percentage” value with type IV collagenase is given as 55.4%.

Palm-L-Arg-L-Asn-L-Arg-L-Cit-NH2: in the assay on type IV collagenase, the “Collagenase activity inhibition percentage” value was found to be 31.3%.
